# Reference: PubChem BioAssay (NCI)
#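 Dose response: 5 concentrations. Exposure: 48 h. Format: 96-well plates. Endpoint: linear interpolation; highest concentration if not reached. TGI: concentration producing complete growth inhibition.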
# Experiments:
# Assay in all cases: inhibition of tumour cell growth, NCI panel, 48 h
# 786-0 renal = test system: 786-0 renal
# A498 renal = test system: A498 renal
# A549 NSCLC = test system: A549 NSCLC
# ACHN renal = test system: ACHN renal
# BT-549 breast = test system: BT-549 breast
# CAKI-1 renal = test system: CAKI-1 renal
# CCRF-CEM leukemia = test system: CCRF-CEM leukemia
# COLO 205 colon = test system: COLO 205 colon
# DU-145 prostate = test system: DU-145 prostate
# EKVX NSCLC = test system: EKVX NSCLC
# HCC-2998 colon = test system: HCC-2998 colon
# HCT-116 colon = test system: HCT-116 colon
# HCT-15 colon = test system: HCT-15 colon
# HL-60(TB) leukemia = test system: HL-60(TB) leukemia
# HOP-62 NSCLC = test system: HOP-62 NSCLC
# HOP-92 NSCLC = test system: HOP-92 NSCLC
# HT29 colon = test system: HT29 colon
# K-562 leukemia = test system: K-562 leukemia
# KM12 colon = test system: KM12 colon
# LOX IMVI melanoma = test system: LOX IMVI melanoma
# M14 melanoma = test system: M14 melanoma
# MCF7 breast = test system: MCF7 breast
# MDA-MB-231 breast = test system: MDA-MB-231 breast
# MDA-MB-435 = test system: MDA-MB-435
# MDA-N = test system: MDA-N
# MOLT-4 leukemia = test system: MOLT-4 leukemia
# NCI-H23 lung = test system: NCI-H23 lung
# NCI-H460 lung = test system: NCI-H460 lung
# NCI/ADR-RES ovarian = test system: NCI/ADR-RES ovarian
# OVCAR-3 ovarian = test system: OVCAR-3 ovarian
# OVCAR-4 ovarian = test system: OVCAR-4 ovarian
# OVCAR-5 ovarian = test system: OVCAR-5 ovarian
# OVCAR-8 ovarian = test system: OVCAR-8 ovarian
# PC-3 prostate = test system: PC-3 prostate
# RPMI-8226 leukemia = test system: RPMI-8226 leukemia
# RXF 393 renal = test system: RXF 393 renal
# SF-268 CNS = test system: SF-268 CNS
# SF-295 CNS = test system: SF-295 CNS
# SF-539 CNS = test system: SF-539 CNS
# SK-MEL-2 melanoma = test system: SK-MEL-2 melanoma
# SK-MEL-28 melanoma = test system: SK-MEL-28 melanoma
# SK-MEL-5 melanoma = test system: SK-MEL-5 melanoma
# SK-OV-3 ovarian = test system: SK-OV-3 ovarian
# SN12C renal = test system: SN12C renal
# SNB-19 CNS = test system: SNB-19 CNS
# SNB-75 CNS = test system: SNB-75 CNS
# SR leukemia = test system: SR leukemia
# SW-620 colon = test system: SW-620 colon
# T-47D breast = test system: T-47D breast
# TK-10 renal = test system: TK-10 renal
# U251 CNS = test system: U251 CNS
# UACC-257 melanoma = test system: UACC-257 melanoma
# UACC-62 melanoma = test system: UACC-62 melanoma
# UO-31 renal = test system: UO-31 renal
# HS 578T breast = test system: HS 578T breast
# IGROV1 ovarian = test system: IGROV1 ovarian
# MALME-3M melanoma = test system: MALME-3M melanoma
# NCI-H226 lung = test system: NCI-H226 lung
# NCI-H522 lung = test system: NCI-H522 lung
smiles,measurement,setting,value
Fc1cccc(C2SCC3=Nc4ccccc4CN32)c1 (stereo unspecified),TGI,786-0 renal,> 100 µM
same,TGI,A498 renal,> 100 µM
same,TGI,A549 NSCLC,> 100 µM
same,TGI,ACHN renal,> 100 µM
same,TGI,BT-549 breast,> 100 µM
same,TGI,CAKI-1 renal,> 100 µM
same,TGI,CCRF-CEM leukemia,> 100 µM
same,TGI,COLO 205 colon,> 100 µM
same,TGI,DU-145 prostate,> 100 µM
same,TGI,EKVX NSCLC,> 100 µM
same,TGI,HCC-2998 colon,> 100 µM
same,TGI,HCT-116 colon,88.6 µM
same,TGI,HCT-15 colon,> 100 µM
same,TGI,HL-60(TB) leukemia,> 100 µM
same,TGI,HOP-62 NSCLC,> 100 µM
same,TGI,HOP-92 NSCLC,> 100 µM
same,TGI,HT29 colon,74.3 µM
same,TGI,K-562 leukemia,> 100 µM
same,TGI,KM12 colon,> 100 µM
same,TGI,LOX IMVI melanoma,> 100 µM
same,TGI,M14 melanoma,> 100 µM
same,TGI,MCF7 breast,> 100 µM
same,TGI,MDA-MB-231 breast,> 100 µM
same,TGI,MDA-MB-435,> 100 µM
same,TGI,MDA-N,> 100 µM
same,TGI,MOLT-4 leukemia,> 100 µM
same,TGI,NCI-H23 lung,> 100 µM
same,TGI,NCI-H460 lung,> 100 µM
same,TGI,NCI/ADR-RES ovarian,35.9 µM
same,TGI,OVCAR-3 ovarian,70.5 µM
same,TGI,OVCAR-4 ovarian,> 100 µM
same,TGI,OVCAR-5 ovarian,> 100 µM
same,TGI,OVCAR-8 ovarian,> 100 µM
same,TGI,PC-3 prostate,> 100 µM
same,TGI,RPMI-8226 leukemia,> 100 µM
same,TGI,RXF 393 renal,> 100 µM
same,TGI,SF-268 CNS,> 100 µM
same,TGI,SF-295 CNS,> 100 µM
same,TGI,SF-539 CNS,> 100 µM
same,TGI,SK-MEL-2 melanoma,49.7 µM
same,TGI,SK-MEL-28 melanoma,> 100 µM
same,TGI,SK-MEL-5 melanoma,41.1 µM
same,TGI,SK-OV-3 ovarian,> 100 µM
same,TGI,SN12C renal,> 100 µM
same,TGI,SNB-19 CNS,> 100 µM
same,TGI,SNB-75 CNS,> 100 µM
same,TGI,SR leukemia,> 100 µM
same,TGI,SW-620 colon,> 100 µM
same,TGI,T-47D breast,> 100 µM
same,TGI,TK-10 renal,> 100 µM
same,TGI,U251 CNS,> 100 µM
same,TGI,UACC-257 melanoma,> 100 µM
same,TGI,UACC-62 melanoma,> 100 µM
same,TGI,UO-31 renal,> 100 µM
NC(Cc1ccccc1)P(=O)(O)O (stereo unspecified),TGI,786-0 renal,> 100 µM
same,TGI,A498 renal,> 100 µM
same,TGI,A549 NSCLC,> 100 µM
same,TGI,ACHN renal,> 100 µM
same,TGI,BT-549 breast,> 100 µM
same,TGI,CAKI-1 renal,> 100 µM
same,TGI,CCRF-CEM leukemia,> 100 µM
same,TGI,EKVX NSCLC,> 100 µM
same,TGI,HCT-116 colon,> 100 µM
same,TGI,HCT-15 colon,> 100 µM
same,TGI,HL-60(TB) leukemia,> 100 µM
same,TGI,HOP-62 NSCLC,> 100 µM
same,TGI,HOP-92 NSCLC,> 100 µM
same,TGI,HS 578T breast,> 100 µM
same,TGI,HT29 colon,> 100 µM
same,TGI,IGROV1 ovarian,> 100 µM
same,TGI,K-562 leukemia,> 100 µM
same,TGI,KM12 colon,> 100 µM
same,TGI,LOX IMVI melanoma,> 100 µM
same,TGI,M14 melanoma,> 100 µM
same,TGI,MALME-3M melanoma,> 100 µM
same,TGI,MDA-MB-231 breast,> 100 µM
same,TGI,MDA-MB-435,> 100 µM
same,TGI,MDA-N,> 100 µM
same,TGI,MOLT-4 leukemia,> 100 µM
same,TGI,NCI-H226 lung,> 100 µM
same,TGI,NCI-H23 lung,> 100 µM
same,TGI,NCI-H460 lung,> 100 µM
same,TGI,NCI-H522 lung,> 100 µM
same,TGI,NCI/ADR-RES ovarian,> 100 µM
same,TGI,OVCAR-3 ovarian,> 100 µM
same,TGI,OVCAR-4 ovarian,> 100 µM
same,TGI,OVCAR-5 ovarian,> 100 µM
same,TGI,OVCAR-8 ovarian,> 100 µM
same,TGI,PC-3 prostate,> 100 µM
same,TGI,RPMI-8226 leukemia,> 100 µM
same,TGI,RXF 393 renal,> 100 µM
same,TGI,SF-268 CNS,> 100 µM
same,TGI,SF-295 CNS,> 100 µM
same,TGI,SK-MEL-2 melanoma,> 100 µM
same,TGI,SK-MEL-28 melanoma,> 100 µM
same,TGI,SK-MEL-5 melanoma,> 100 µM
same,TGI,SN12C renal,> 100 µM
same,TGI,SNB-19 CNS,> 100 µM
same,TGI,SR leukemia,> 100 µM
same,TGI,SW-620 colon,> 100 µM
same,TGI,T-47D breast,> 100 µM
same,TGI,TK-10 renal,> 100 µM
same,TGI,U251 CNS,> 100 µM
same,TGI,UACC-257 melanoma,> 100 µM
same,TGI,UACC-62 melanoma,> 100 µM
same,TGI,UO-31 renal,> 100 µM
